Results from patent US20230181509A1, “THE USE OF DIFFUSION ENHANCING COMPOUNDS FOR TREATMENT OF VIRAL AND BACTERIAL INDUCED RESPIRATORY DISEASE” (DIFFUSION PHARMACEUTICALS LLC, priority 2020, published 2023).
Where two headings read alike, the source gives them in different places.

Assays:
[1] = cited from earlier work
[2] = after hemorrhagic shock in rats; cited from earlier work
[3] = cited from earlier work; remark: listed apart in the source
[4] = Solubility of TSC in water with gamma-cyclodextrin; format: physicochemical; conditions: TSC and gamma-cyclodextrin
[5] = Solubility of TSC formulated with cyclodextrin and mannitol; format: physicochemical; conditions: formulated with a cyclodextrin and mannitol
From the text: A trans carotenoid such as TSC can be formulated with a cyclodextrin as noted above and a non-metabolized sugar such as mannitol (e.g. d-mannitol to adjust the osmotic pressure to be the same as that of blood). […] This solution can be added to isotonic saline or to other isotonic solutions in order to dilute it and still maintain the proper osmolality.

[6] = Absorption into the blood stream after intramuscular injection of TSC with gamma cyclodextrin; format: in vivo; conditions: injected intramuscularly, rats
From the text: The solutions need not be equal-molar.

SMILES	diffusivity of oxygen in water [1]	whole-body oxygen consumption [2]	oxygen levels, arterial and tissue ([3]; hypoxemic states)	oxygen levels, arterial and tissue ([3]; normoxic states)	TSC concentration reached in aqueous solution [4]	diffusivity of oxygen through plasma ([1]; plasma)	TSC concentration of solutions that can be made [5]	absorption into the blood stream [6]
CC(/C=C/C=C(\C)C(=O)O)=C\C=C\C=C(C)\C=C\C=C(/C)C(=O)O [crocetin, reference compound]	increase the diffusivity of oxygen in water							
CC(/C=C/C=C(\C)C(=O)[O-])=C\C=C\C=C(C)\C=C\C=C(/C)C(=O)[O-].[Na+].[Na+] [TSC, trans sodium crocetinate]	increase the diffusivity of oxygen in water	increase whole-body oxygen consumption	increases oxygen levels	does not	≤ 44 milligrams of TSC per ml of solution	increases the diffusivity of oxygen through plasma	over 20 mg TSC/ml of solution	Absorption is quick
